Measurements published in US7816074B2, “α4 β2 δGABA-A receptors as a strategy for PMS and alcoholism” (priority 2003, dated 2010).

Tests used:
[1] = system: GABAR α4 subunit; test: Western blot of α4 subunit in hippocampus after steroid and ethanol administration; assay type: in vivo, rat
Protocol: Animals were administered steroids using one of two protocols: (i) For the 48 hour steroid administration protocol, animals were injected with 10 mg/kg 3α, 5β THP in oil, i.p., on a daily basis for three days and sacrificed 1-2 hour following the final injection. Controls were injected with oil vehicle. […] At this time, the capsule was removed and the animals were injected with 17 β estradiol (2 μgs/animal) in order to reset their cycle. Animals were sacrificed 24 hours later. […] In all cases, implantation and removal of capsules were performed under halothane anesthesia. […] Therefore, this study employed the 5β isomer of the steroid.
In some groups of animals, either ethanol (0.5 g/kg in saline) or saline vehicle was administered i.p. (3×, every 40 minutes) for the final 2 hours of the respective steroid administration or withdrawal paradigm. The use of multiple injections of low doses of ethanol would approximate ethanol consumption in the human more closely than would a single injection. For the 48 hour steroid administration paradigm, animals received their first ethanol injection immediately after the steroid injection, and subsequent injections at 40 minute intervals. In all cases, animals were sacrificed 40 minutes after the final ethanol injection (2 hours after the first ethanol injection and final steroid injection). All animal protocols were carried out with the approval of the Institutional Animal Care and Use Committee.
Hippocampi removed from steroid or vehicle-treated animals were homogenized, and membranes prepared as previously described (65). Following electrophoresis on 8% SDS polyacrylamide gels, membranes were transferred to a nitrocellulose membrane (Bio-Rad, Hercules, Calif.). α4 subunit levels were detected by evaluating the band density at 67 kDa after probing with a polyclonal antibody (64). Membranes were incubated for 1-2 hours at room temperature with a 1:5000 dilution of horseradish peroxidase-conjugated donkey anti-rabbit IgG (Amersham, Arlington Heights, Ill.), and visualized with enhanced chemiluminescence with varying concentrations of protein in the linear range. Immunoreactive band densities were quantified using a CCD camera (UMAX Scanner) and one-Dscan software, which uses multiple Gaussian fits to achieve accurate band density profiles.

[2] = system: female Long Evans rats; test: Acoustic startle response (ASR); assay type: in vivo, rat; settings: for decrease of peak ASR: diestrous and sham controls
Protocol: Animals were tested in a stabilimeter device (SR-Lab Startle Response System, San Diego Instruments, Inc., San Diego, Calif.) that permits vertical movement of a Plexiglas platform contained within a lit, well-ventilated sound-attenuating chamber (26). The amplitude of movement is detected by a piezoelectric device with a voltage output proportional to platform displacement. The analog output of the accelerometer is then amplified and digitized before computer analysis. Five minutes after i.p. administration of 10% ethanol (0.05-1.6 g/kg) or saline vehicle (1.5 ml volume) or 25 minutes after 4,5,6,7-tetrahydroisoxazolo[5,4-c]pyridin-3-ol injection (3 mg/kg, i.p.), animals were placed in the chamber for a 5 minutes acclimation period. […] Four acoustic stimuli (116 dB, 40 ms duration) were then presented at random intervals once every 10-15 seconds via a white-noise generator through speakers positioned on either side of the cage. […] For each acoustic stimulus, the amplitude and integrated response (amplitude and duration) were determined and normalized to the weight of the animal. Values for the integrated response after administration of each dose of ethanol or 4,5,6,7-tetrahydroisoxazolo[5,4-c]pyridin-3-ol were averaged and expressed as a fraction of the saline control average for the indicated treatment (progesterone withdrawal versus control) group in order to minimize variability between groups. […] It is also routinely used to assess behavioral excitability after withdrawal from BDZs and ethanol (73).
Animals were tested in a stabilimeter device (SR-Lab Startle Response System, San Diego Instruments, Inc.) that permitted vertical movement of a Plexiglas cage contained within a lit, well-ventilated, sound-attenuating chamber. The amplitude of movement was detected by a piezoelectric device with a voltage output proportional to cage displacement. The analog output of the accelerometer was amplified and digitized before computer analysis (15). Five minutes following intraperitoneal administration of alcohol (0.2 or 0.4 g/kg) or saline vehicle (1.5 ml volume), animals were placed in the chamber for 5 a minute acclimation period. Five acoustic stimuli (116 dB, 40 msec duration) were then presented once every 10-15 seconds via a white-noise generator through speakers positioned on either side of the cage. For each acoustic stimulus, the integrated response (amplitude and duration) was averaged across a 100 msec post-stimulus time period and the response latency determined. Both values were normalized to the weight of the animal. Values for the integrated response for the first noise stimulus following administration of each dose of alcohol were averaged and expressed as a fraction of the saline control average for the indicated treatment (P Wd versus control) group. […] It is routinely used to assess behavioral excitability following withdrawal from benzodiazepiness (48) and alcohol (73), and is known to be modified by GABA modulators, such as diazepam (11), and by local infusion of excitatory compounds into dorsal hippocampus (85).

Structure (SMILES): CCO [ethanol]
- α4 expression ([1]; 2 hour ethanol administration after progesterone withdrawal): unchanged from control levels
- α4 expression in hippocampus ([1]; ethanol 0.5 g/kg i.p. across final 2 hours of 48 h 3α,5β-THP administration): reversed the increase
- α4 levels ([1]; ethanol administered without steroid): no significant effect
- effect on acoustic startle response ([2]; alcohol 0.2-0.4 g/kg in vivo, after progesterone withdrawal (Example III)): decreased the acoustic startle response
- effect on ASR ([2]; ethanol 0.05 g/kg i.p., P withdrawal and diestrous control animals): equally ineffective
- attenuation of average peak and integrated startle responses ([2]; ethanol 0.2-0.4 g/kg i.p., after P withdrawal): about 70%
- attenuation of startle responses ([2]; ethanol 0.2-0.4 g/kg i.p., diestrous and sham control animals): not observed
- decrease of peak ASR ([2]; ethanol 0.2 g/kg): ineffective
- effect on ASR ([2]; ethanol 0.8-1.2 g/kg i.p., P withdrawn animals): ineffective
- effect on ASR ([2]; ethanol 0.8-1.2 g/kg i.p., both control groups): significantly decreased
- decrease of peak ASR ([2]; ethanol 0.8 g/kg): effective
- effect on ASR ([2]; ethanol 1.6 g/kg i.p., P withdrawal and diestrous control animals): decreased the ASR
